Experimental data taken from patent US8148391B2 (Cephalon, Inc., priority 2006, dated 2012).

How the values were obtained:
[1] = target: T1, baculovirus-expressed ALK (Homo sapiens, UniProt Q9UM73); assay: ALK Kinase Assay (ELISA-type, time-resolved fluorescence); assay type: biochemical; details: 1 μM ATP (Km level), 30 ng/ml ALK, 37° C., 15 minutes; read-out: ALK Activity (ALK kinase inhibition, IC50 class)
T1 construct: host or cells: baculovirus expression system
In short: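 Plates coated with phospholipase C-γ substrate (10 μg/mL in TBS); reaction started with 30 ng/ml ALK and run 15 min at 37° C. Phosphorylated substrate detected with Eu-N1-labeled PT66 antibody. IC50 from sigmoidal variable-slope fit of percent inhibition vs log concentration.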

[2] = target: T2, c-Met (cytoplasmic domain) (Homo sapiens, UniProt P08581); assay: c-Met Kinase Assay (same methods as for ALK, with modifications); assay type: biochemical; details: 1 μM ATP (Km level), 10 ng/mL c-Met; read-out: cMet Activity (c-Met kinase inhibition, IC50 class)
T2 construct: 10 ng/mL c-Met (cytoplasmic domain, Invitrogen Corporation #PV3143); purchased Invitrogen Corporation PV3143
In short: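 Plates were coated with phospholipase C-γ substrate (10 μg/mL) in TBS, and the reaction was started with 10 ng/mL c-Met cytoplasmic domain and run 15 min at 37 °C. Phosphoproduct was detected with Eu-N1-labelled PT66 antibody. IC50 came from a variable-slope sigmoidal fit of percent inhibition vs log concentration.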

T1 sequence (Q9UM73 19-1620): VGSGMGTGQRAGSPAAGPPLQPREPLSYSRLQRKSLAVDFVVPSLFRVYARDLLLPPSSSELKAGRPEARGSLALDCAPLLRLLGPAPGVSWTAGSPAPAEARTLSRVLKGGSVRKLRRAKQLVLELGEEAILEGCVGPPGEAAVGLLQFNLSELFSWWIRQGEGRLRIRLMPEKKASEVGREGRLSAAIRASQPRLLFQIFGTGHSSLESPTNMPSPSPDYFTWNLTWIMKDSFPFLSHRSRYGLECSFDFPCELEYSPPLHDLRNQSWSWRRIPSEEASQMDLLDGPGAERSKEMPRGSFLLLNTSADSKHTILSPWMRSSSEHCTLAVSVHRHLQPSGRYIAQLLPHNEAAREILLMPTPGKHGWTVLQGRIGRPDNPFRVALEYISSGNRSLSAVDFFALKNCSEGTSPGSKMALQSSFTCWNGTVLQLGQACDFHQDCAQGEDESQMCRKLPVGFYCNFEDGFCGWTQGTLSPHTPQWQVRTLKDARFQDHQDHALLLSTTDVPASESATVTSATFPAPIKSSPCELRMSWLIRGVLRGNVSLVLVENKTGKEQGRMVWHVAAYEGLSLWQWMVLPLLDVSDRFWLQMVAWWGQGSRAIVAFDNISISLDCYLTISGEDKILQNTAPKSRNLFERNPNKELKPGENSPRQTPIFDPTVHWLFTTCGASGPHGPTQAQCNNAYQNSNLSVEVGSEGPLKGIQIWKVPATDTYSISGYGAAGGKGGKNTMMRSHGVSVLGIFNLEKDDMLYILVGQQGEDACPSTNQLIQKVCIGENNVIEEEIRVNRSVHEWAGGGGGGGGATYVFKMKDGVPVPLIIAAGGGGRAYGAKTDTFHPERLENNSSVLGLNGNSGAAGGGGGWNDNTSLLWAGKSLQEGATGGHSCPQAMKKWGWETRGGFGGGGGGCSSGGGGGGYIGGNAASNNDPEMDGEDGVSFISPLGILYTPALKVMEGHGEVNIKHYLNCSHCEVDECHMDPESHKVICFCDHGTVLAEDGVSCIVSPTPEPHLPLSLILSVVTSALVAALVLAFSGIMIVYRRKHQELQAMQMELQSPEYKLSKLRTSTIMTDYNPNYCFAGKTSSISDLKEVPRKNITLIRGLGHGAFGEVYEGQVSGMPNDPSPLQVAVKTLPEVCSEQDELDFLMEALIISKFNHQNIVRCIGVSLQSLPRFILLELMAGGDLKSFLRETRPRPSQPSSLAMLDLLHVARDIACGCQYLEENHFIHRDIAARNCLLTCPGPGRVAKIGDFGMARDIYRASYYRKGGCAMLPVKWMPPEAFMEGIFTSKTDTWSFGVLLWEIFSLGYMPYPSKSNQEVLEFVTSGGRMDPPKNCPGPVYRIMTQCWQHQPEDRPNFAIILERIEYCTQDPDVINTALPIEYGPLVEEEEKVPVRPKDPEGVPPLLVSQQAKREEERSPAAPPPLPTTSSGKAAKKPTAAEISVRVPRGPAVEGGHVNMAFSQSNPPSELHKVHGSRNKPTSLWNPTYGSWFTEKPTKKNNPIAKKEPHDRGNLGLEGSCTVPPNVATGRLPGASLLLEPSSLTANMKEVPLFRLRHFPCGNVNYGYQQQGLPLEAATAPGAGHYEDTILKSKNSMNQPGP
T2 sequence (P08581 956-1390 limits assumed): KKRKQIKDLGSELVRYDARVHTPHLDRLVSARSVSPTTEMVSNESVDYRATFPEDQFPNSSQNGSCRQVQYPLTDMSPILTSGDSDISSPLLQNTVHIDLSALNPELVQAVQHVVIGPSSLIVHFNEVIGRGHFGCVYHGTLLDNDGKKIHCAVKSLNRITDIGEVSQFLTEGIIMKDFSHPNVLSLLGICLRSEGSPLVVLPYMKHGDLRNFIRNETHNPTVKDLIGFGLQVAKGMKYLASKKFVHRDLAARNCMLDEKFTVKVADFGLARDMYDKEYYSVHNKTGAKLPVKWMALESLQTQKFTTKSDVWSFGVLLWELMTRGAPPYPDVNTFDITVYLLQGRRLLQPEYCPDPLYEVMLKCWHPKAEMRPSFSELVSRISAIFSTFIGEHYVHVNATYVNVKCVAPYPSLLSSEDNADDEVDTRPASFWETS

Row | SMILES | IC50 [1] [nM] | IC50 [2] [nM]
1 | COc1cc2c(cc1Nc1ncc(Cl)c(Nc3ccccc3-n3cccn3)n1)CCC(NCCO)CC2 (stereo not shown) [Example 1091, 2-{2-[5-Chloro-4-(2-pyrazol-1-yl-phenylamino)-pyrimidin-2-ylamino]-3-methoxy-6,7,8,9-tetrahydro-5H-benzocyclohepten-7-ylamino}-ethanol] | < 100 | 1000 to 10000
2 | CNC(=O)c1ccccc1Nc1nc(Nc2cc3c(cc2OC)CCC(NCCO)CC3)ncc1Cl (stereo not shown) [Example 1092, 2-{5-Chloro-2-[7-(2-hydroxy-ethylamino)-3-methoxy-6,7,8,9-tetrahydro-5H-benzocyclohepten-2-ylamino]-pyrimidin-4-ylamino}-N-methyl-benzamide] | < 100 | > 10000
3 | COCCOC(=O)c1ccccc1Nc1nc(Nc2cc3c(cc2OC)CCC(NCCO)CC3)ncc1Cl (stereo not shown) [Example 1093, 2-{5-Chloro-2-[7-(2-hydroxy-ethylamino)-3-methoxy-6,7,8,9-tetrahydro-5H-benzocyclohepten-2-ylamino]-pyrimidin-4-ylamino}-benzoic acid 2-methoxy-ethyl ester] | < 100 | > 10000
4 | COc1cc2c(cc1Nc1ncc(Cl)c(Nc3ccccc3S(=O)(=O)N3CCC(O)C3)n1)CCC(N1CCN(C)CC1)CC2 (stereo not shown) [Example 1098, 1-(2-{5-Chloro-2-[3-methoxy-7-(4-methyl-piperazin-1-yl)-6,7,8,9-tetrahydro-5H-benzocyclohepten-2-ylamino]-pyrimidin-4-ylamino}-benzenesulfonyl)-pyrrolidin-3-ol] | < 100 | 1000 to 10000
5 | COc1cc2c(cc1Nc1ncc(Cl)c(Nc3ccccc3S(=O)(=O)N(C)C)n1)CCC(N1CCN(C)CC1)CC2 (stereo not shown) [Example 1099, 2-{5-Chloro-2-[3-methoxy-7-(4-methyl-piperazin-1-yl)-6,7,8,9-tetrahydro-5H-benzocyclohepten-2-ylamino]-pyrimidin-4-ylamino}-N,N-dimethyl-benzenesulfonamide] | < 100 | 1000 to 10000
6 | COc1cc2c(cc1Nc1ncc(Cl)c(Nc3ccccc3S(=O)(=O)C(C)C)n1)CCC(N1CCN(C)CC1)CC2 (stereo not shown) [Example 1100, 5-Chloro-N*2*-[3-methoxy-7-(4-methyl-piperazin-1-yl)-6,7,8,9-tetrahydro-5H-benzocyclohepten-2-yl]-N*4*-[2-(propane-2-sulfonyl)-phenyl]-pyrimidine-2,4-diamine] | < 100 | 1000 to 10000
7 | COc1cc2c(cc1Nc1ncc(Cl)c(Nc3ccccc3C(=O)OC(C)C)n1)CCN(CCCN(C)C)C(=O)C2 [Example 1111, 2-{5-Chloro-2-[3-(3-dimethylamino-propyl)-8-methoxy-2-oxo-2,3,4,5-tetrahydro-1H-benzo[d]azepin-7-ylamino]-pyrimidin-4-ylamino}-benzoic acid isopropyl ester] | < 100 | > 10000
8 | CNC(=O)CN1CCc2cc(Nc3ncc(Cl)c(N[C@@H]4CCCC[C@H]4NS(C)(=O)=O)n3)c(OC)cc2CC1 [Example 1112, 2-{7-[5-Chloro-4-((1R,2R)-2-methanesulfonylamino-cyclohexylamino)-pyrimidin-2-ylamino]-8-methoxy-1,2,4,5-tetrahydro-benzo[d]azepin-3-yl}-N-methyl-acetamide] | < 100 | > 10000
9 | CNC(=O)CN1CCc2cc(Nc3ncc(Cl)c(Nc4ccccc4C(=O)NC)n3)c(OC)cc2CC1 [Example 1114, 2-[5-Chloro-2-(8-methoxy-3-methylcarbamoylmethyl-2,3,4,5-tetrahydro-1H-benzo[d]azepin-7-ylamino)-pyrimidin-4-ylamino]-N-methyl-benzamide] | < 100 | 1000 to 10000
10 | CCNC(=O)c1ccccc1Nc1nc(Nc2cc3c(cc2OC)CCN(CC(=O)NC)CC3)ncc1Cl [Example 1115, 2-[5-Chloro-2-(8-methoxy-3-methylcarbamoylmethyl-2,3,4,5-tetrahydro-1H-benzo[d]azepin-7-ylamino)-pyrimidin-4-ylamino]-N-ethyl-benzamide] | < 100 | 1000 to 10000
11 | CNC(=O)CN1CCc2cc(Nc3ncc(Cl)c(Nc4c(F)cccc4C(=O)NC)n3)c(OC)cc2CC1 [Example 1116, 2-[5-Chloro-2-(8-methoxy-3-methylcarbamoylmethyl-2,3,4,5-tetrahydro-1H-benzo[d]azepin-7-ylamino)-pyrimidin-4-ylamino]-3-fluoro-N-methyl-benzamide] | < 100 | 1000 to 10000
12 | CNC(=O)CN1CCc2cc(Nc3ncc(Cl)c(NC4C5C=CC(C5)C4C(N)=O)n3)c(OC)cc2CC1 (stereo not drawn) [Example 1117, (2-exo,3-exo)-3-[5-Chloro-2-(8-methoxy-3-methylcarbamoylmethyl-2,3,4,5-tetrahydro-1H-benzo[d]azepin-7-ylamino)-pyrimidin-4-ylamino]-bicyclo[2.2.1]hept-5-ene-2-carboxylic acid amide] | < 100 | > 10000
13 | CNC(=O)CN1CCc2cc(Nc3ncc(Cl)c(Nc4cc(Cl)ccc4OC)n3)c(OC)cc2CC1 [Example 1118, 2-{7-[5-Chloro-4-(5-chloro-2-methoxy-phenylamino)-pyrimidin-2-ylamino]-8-methoxy-1,2,4,5-tetrahydro-benzo[d]azepin-3-yl}-N-methyl-acetamide] | < 100 | > 10000
14 | CCNC(=O)c1cccc(F)c1Nc1nc(Nc2cc3c(cc2OC)CCN(CC(=O)N(C)C)CC3)ncc1Cl [Example 1119, 2-[5-Chloro-2-(3-dimethylcarbamoylmethyl-8-methoxy-2,3,4,5-tetrahydro-1H-benzo[d]azepin-7-ylamino)-pyrimidin-4-ylamino]-N-ethyl-3-fluoro-benzamide] | < 100 | 1000 to 10000
15 | COc1cc2c(cc1Nc1ncc(Cl)c(Nc3ccc(N4CCOCC4)cc3OC)n1)CCN(C(=O)CN(C)C)CC2 [Example 1121, 1-{7-[5-Chloro-4-(2-methoxy-4-morpholin-4-yl-phenylamino)-pyrimidin-2-ylamino]-8-methoxy-1,2,4,5-tetrahydro-benzo[d]azepin-3-yl}-2-dimethylamino-ethanone] | < 100 | > 10000
16 | COc1cc2c(cc1Nc1ncc(Cl)c(N[C@@H]3CCCC[C@H]3NS(C)(=O)=O)n1)CCN(CCS(C)(=O)=O)CC2 [Example 1122, N-((1R,2R)-2-{5-Chloro-2-[3-(2-methanesulfonyl-ethyl)-8-methoxy-2,3,4,5-tetrahydro-1H-benzo[d]azepin-7-ylamino]-pyrimidin-4-ylamino}-cyclohexyl)-methanesulfonamide] | < 100 | > 10000
17 | COc1cc2c(cc1Nc1ncc(Cl)c(N[C@H]3[C@@H](C(N)=O)[C@@H]4C=C[C@H]3C4)n1)CCN(CC(=O)N(C)C)CC2 [Example 1123, (1S,2S,3R,4R)-3-[5-Chloro-2-(3-dimethylcarbamoylmethyl-8-methoxy-2,3,4,5-tetrahydro-1H-benzo[d]azepin-7-ylamino)-pyrimidin-4-ylamino]-bicyclo[2.2.1]hept-5-ene-2-carboxylic acid amide] | < 100 | > 10000
18 | CNC(=O)CN1CCc2cc(Nc3ncc(Cl)c(N[C@H]4[C@@H](C(N)=O)[C@@H]5C=C[C@H]4C5)n3)c(OC)cc2CC1 [Example 1124, (1S,2S,3R,4R)-3-[5-Chloro-2-(8-methoxy-3-methylcarbamoylmethyl-2,3,4,5-tetrahydro-1H-benzo[d]azepin-7-ylamino)-pyrimidin-4-ylamino]-bicyclo[2.2.1]hept-5-ene-2-carboxylic acid amide] | < 100 | > 10000
19 | COc1cc2c(cc1Nc1ncc(Cl)c(N[C@@H]3CCCC[C@H]3NS(C)(=O)=O)n1)CCN(C(=O)CN(C)C)CC2 [Example 1125, N-((1R,2R)-2-{5-Chloro-2-[3-(2-dimethylamino-acetyl)-8-methoxy-2,3,4,5-tetrahydro-1H-benzo[d]azepin-7-ylamino]-pyrimidin-4-ylamino}-cyclohexyl)-methanesulfonamide] | < 100 | > 10000
20 | CNC(=O)c1ccccc1Nc1nc(Nc2cc3c(cc2OC)CC(=O)N(CCCN2CCOCC2)CC3)ncc1Cl [Example 1126, 2-{5-Chloro-2-[8-methoxy-3-(3-morpholin-4-yl-propyl)-2-oxo-2,3,4,5-tetrahydro-1H-benzo[d]azepin-7-ylamino]-pyrimidin-4-ylamino}-N-methyl-benzamide] | < 100 | > 10000
21 | CNC(=O)CN1CCc2ccc(Nc3ncc(Cl)c(Nc4ccc(N5CCOCC5)cc4OC)n3)cc2CC1 [Example 1127, 2-{7-[5-Chloro-4-(2-methoxy-4-morpholin-4-yl-phenylamino)-pyrimidin-2-ylamino]-1,2,4,5-tetrahydro-benzo[d]azepin-3-yl}-N-methyl-acetamide] | < 100 | 1000 to 10000
22 | COc1cc2c(cc1Nc1ncc(Cl)c(N[C@H]3[C@@H](C(N)=O)[C@@H]4C=C[C@H]3C4)n1)CCN(CCS(C)(=O)=O)CC2 [Example 1128, (1S,2S,3R,4R)-3-{5-Chloro-2-[3-(2-methanesulfonyl-ethyl)-8-methoxy-2,3,4,5-tetrahydro-1H-benzo[d]azepin-7-ylamino]-pyrimidin-4-ylamino}-bicyclo[2.2.1]hept-5-ene-2-carboxylic acid amide] | < 100 | > 10000
23 | CCN1CCc2cc(Nc3ncc(Cl)c(Nc4ccc(N5CCOCC5)cc4OC)n3)c(OC)cc2CC1 [Example 1129, 5-Chloro-N*2*-(3-ethyl-8-methoxy-2,3,4,5-tetrahydro-1H-benzo[d]azepin-7-yl)-N*4*-(2-methoxy-4-morpholin-4-yl-phenyl)-pyrimidine-2,4-diamine] | < 100 | > 10000
